Measurements from patent publication US20250340574A1, “MODULATORS OF CYSTIC FIBROSIS TRANSMEMBRANE CONDUCTANCE REGULATOR” (Vertex Pharmaceuticals Incorporated, priority 2022, published 2025).
Like-named read-outs stand apart in the source and are kept apart here.

Assays:
[1] = amide bond, 13-membered ring, CDMT/NMM, DMF
[2] = target: T1, CFTR (F508del/MF-HBE cells) (Homo sapiens, UniProt P13569, DEL508-508); assay: Ussing chamber assay of CFTR-mediated short-circuit currents, Assay A (0.1 μM to 25 μM, 6 concentrations); format: cell-based; conditions: with 33 nM potentiator and 18 μM Tezacaftor, 20% human serum; for Emax: 18-24 hours, read-out: A Max activity (%)
T1 construct: human bronchial epithelial (HBE) cells derived from CF subjects heterozygous for F508del and a minimal function CFTR mutation (F508del/MF-HBE); endogenous in cells; host or cells: Primary human bronchial epithelial cells from CF subjects (F508del/MF genotype), differentiated at an air-liquid interface
In short: (§1)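 Short-circuit current was recorded at 37 °C under voltage clamp (0 mV) with amiloride 30 μM apically, forskolin 20 μM activation, then BPO/GlyH-101/inh-172 (20 μM each) to isolate CFTR current. Before recording, corrector exposure lasted 18–24 h with 18 μM tezacaftor, 20% human serum, and 33 nM (dose–response) or 44 nM (1 μM fixed) potentiator, maintained throughout.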

[3] = target: T1, CFTR (F508del/MF-HBE cells); assay: Ussing chamber assay of CFTR-mediated short-circuit currents, Assay B (0.00001 μM to 25 μM, 12 concentrations); format: cell-based; conditions: with 33 nM potentiator and 18 μM Tezacaftor, 20% human serum; for Emax: 18-24 hours, read-out: B Max activity (%)
Protocol: Ussing chamber experiments were performed using human bronchial epithelial (HBE) cells derived from CF subjects heterozygous for F508del and a minimal function CFTR mutation (F508del/MF-HBE) and cultured as previously described (Neuberger T, Burton B, Clark H, Van Goor F Methods Mol Biol 2011:741:39-54). After four days the apical media was removed, and the cells were grown at an air liquid interface for >14 days prior to use.
To isolate the CFTR-mediated short-circuit (ISC) current, F508del/MF-HBE grown on Costar® Snapwell™ cell culture inserts were mounted in an Ussing chamber and the transepithelial ISC was measured under voltage-clamp recording conditions (Vhold=0 mV) at 37° C. The basolateral solution contained (in mM) 145 NaCl, 0.83 K2HPO4, 3.3 KH2PO4, 1.2 MgCl2, 1.2 CaCl2, 10 Glucose, 10 HEPES (pH adjusted to 7.4 with NaOH) and the apical solution contained (in mM) 145 NaGluconate, 1.2 MgCl2, 1.2 CaCl2, 10 glucose, 10 HEPES (pH adjusted to 7.4 with NaOH) and 30 μM amiloride to block the epithelial sodium channel. Forskolin (20 μM) was added to the apical surface to activate CFTR, followed by apical addition of a CFTR inhibitor cocktail consisting of BPO, GlyH-101, and CFTR inhibitor 172 (each at 20 μM final assay concentration) to specifically isolate CFTR currents. The CFTR-mediated ISC (μA/cm^2) for each condition was determined from the peak forskolin response to the steady-state current following inhibition.
The activity of the CFTR corrector compounds on the CFTR-mediated ISC was determined in Ussing chamber studies as described above. The F508del/MF-HBE cell cultures were either incubated with the corrector compounds at a range of concentrations in combination with 33 nM (6R,12R)-17-amino-12-methyl-6,15-bis(trifluoromethyl)-13,19-dioxa-3,4,18-triazatricyclo[12.3.1.12,5]nonadeca-1(18),2,4,14,16-pentaen-6-ol and 18 μM Tezacaftor or were incubated with the corrector compounds at a single fixed concentration of 1 μM in combination with 44 nM (6R,12R)-17-amino-12-methyl-6,15-bis(trifluoromethyl)-13,19-dioxa-3,4,18-triazatricyclo[12.3.1.12,5]nonadeca-1(18),2,4,14,16-pentaen-6-ol and 18 μM Tezacaftor for 18-24 hours at 37° C. and in the presence of 20% human serum. The concentration of corrector compounds with 44 nM or 33 nM (6R,12R)-17-amino-12-methyl-6,15-bis(trifluoromethyl)-13,19-dioxa-3,4,18-triazatricyclo[12.3.1.12,5]nonadeca-1(18),2,4,14,16-pentaen-6-ol and 18 μM Tezacaftor during the 18-24 hours incubations was kept constant throughout the Ussing chamber measurement of the CFTR-mediated ISC to ensure compounds were present throughout the entire experiment. The efficacy and potency of the putative F508del correctors was compared to that of the known Vertex corrector, (14S)-8-[3-(2-{Dispiro[2.0.2.1]heptan-7-yl}ethoxy)-1H-pyrazol-1-yl]-12,12-dimethyl-2λ^6-thia-3,9,11,18,23-pentaazatetracyclo[17.3.1.111,14.05,10]tetracosa-1(22),5,7,9,19(23),20-hexaene-2,2,4-trione, in combination with 18 μM Tezacaftor and 1 μM Ivacaftor.
• Assay A: 0.1 μM to 25 μM, 6 concentrations • Assay B: 0.00001 μM to 25 μM, 12 concentrations • Assay C: 0.026 μM to 25 μM, 6 concentrations • Assay D: Activity at single concentration of 1 μM

[4] = target: T1, CFTR (F508del/MF-HBE cells); assay: Ussing chamber assay of CFTR-mediated short-circuit currents, Assay C (0.026 μM to 25 μM, 6 concentrations); format: cell-based; conditions: with 33 nM potentiator and 18 μM Tezacaftor, 20% human serum; for Emax: read-out: C Max activity (%)
In short: as §1

[5] = target: T1, CFTR (F508del/MF-HBE cells); assay: Ussing chamber assay of CFTR-mediated short-circuit currents, Assay D (single concentration of 1 μM); format: cell-based; conditions: with 44 nM potentiator and 18 μM Tezacaftor, 20% human serum
In short: as §1

T1 sequence (P13569 with tags, fused parts or gaps DEL508-508): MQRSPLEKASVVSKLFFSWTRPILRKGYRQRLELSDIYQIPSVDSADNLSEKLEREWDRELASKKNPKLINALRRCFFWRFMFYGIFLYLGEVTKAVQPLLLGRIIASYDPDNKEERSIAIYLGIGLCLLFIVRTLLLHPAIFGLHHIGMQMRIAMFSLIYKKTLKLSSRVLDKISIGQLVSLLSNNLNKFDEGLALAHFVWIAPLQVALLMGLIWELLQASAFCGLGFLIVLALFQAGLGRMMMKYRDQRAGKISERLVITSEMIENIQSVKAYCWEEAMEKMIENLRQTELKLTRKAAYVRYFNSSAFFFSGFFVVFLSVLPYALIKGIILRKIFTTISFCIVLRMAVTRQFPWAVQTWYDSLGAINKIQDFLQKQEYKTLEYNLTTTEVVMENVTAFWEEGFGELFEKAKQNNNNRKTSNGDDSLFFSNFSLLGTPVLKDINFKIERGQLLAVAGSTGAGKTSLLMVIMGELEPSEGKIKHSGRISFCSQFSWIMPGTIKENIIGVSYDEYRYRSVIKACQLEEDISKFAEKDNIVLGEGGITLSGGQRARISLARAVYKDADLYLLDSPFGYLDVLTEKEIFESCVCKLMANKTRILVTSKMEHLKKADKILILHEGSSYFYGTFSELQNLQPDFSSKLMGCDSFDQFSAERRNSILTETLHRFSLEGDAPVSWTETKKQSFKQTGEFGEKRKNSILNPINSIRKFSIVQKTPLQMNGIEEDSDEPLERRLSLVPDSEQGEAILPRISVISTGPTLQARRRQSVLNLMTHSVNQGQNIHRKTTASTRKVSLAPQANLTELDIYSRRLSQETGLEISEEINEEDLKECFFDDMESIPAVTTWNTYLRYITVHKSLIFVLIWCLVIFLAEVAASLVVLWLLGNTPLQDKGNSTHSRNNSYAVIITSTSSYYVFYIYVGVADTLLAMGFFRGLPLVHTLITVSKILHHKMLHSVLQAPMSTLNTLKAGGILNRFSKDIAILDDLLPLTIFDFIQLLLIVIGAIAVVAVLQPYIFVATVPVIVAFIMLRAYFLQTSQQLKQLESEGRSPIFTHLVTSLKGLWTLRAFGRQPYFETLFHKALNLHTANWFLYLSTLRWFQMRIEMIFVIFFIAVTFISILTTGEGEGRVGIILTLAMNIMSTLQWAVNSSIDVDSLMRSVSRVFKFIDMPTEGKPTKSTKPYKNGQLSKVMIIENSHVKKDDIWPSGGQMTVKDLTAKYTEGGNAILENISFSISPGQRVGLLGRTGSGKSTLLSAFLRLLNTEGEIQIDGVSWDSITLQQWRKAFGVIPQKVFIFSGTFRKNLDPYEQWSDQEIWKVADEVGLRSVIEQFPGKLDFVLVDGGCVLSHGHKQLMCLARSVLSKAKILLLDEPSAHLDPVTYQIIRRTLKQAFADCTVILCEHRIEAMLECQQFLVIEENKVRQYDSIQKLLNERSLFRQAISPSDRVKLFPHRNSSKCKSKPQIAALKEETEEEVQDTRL

In the case of `Cc1cccc(C)c1-c1cc2nc(n1)NS(=O)(=O)c1cccc(c1)C(=O)N(Cc1cnc3oc(C(C)C)cc3n1)[C@H](CCC1(C)CCC1)CO2` [Compound I-13, (11R)-6-(2,6-dimethylphenyl)-12-[(6-isopropylfuro[2,3-b]pyrazin-2-yl)methyl]-11-[2-(1-methylcyclobutyl)ethyl]-2,2-dioxo-9-oxa-2λ^6-thia-3,5,12,19-tetrazatricyclo[12.3.1.14,8]nonadeca-1(18),4(19),5,7,14,16-hexaen-13-one], the ring closure, yield after HPLC ([1]; from Cc1cccc(C)c1-c1cc(OC[C@@H](CCC2(C)CCC2)NCc2cnc3oc(C(C)C)cc3n2)nc(NS(=O)(=O)c2cccc(C(=O)O)c2)n1, 13.5 mM, 16.5 h) is reported as 37%, the Emax [2] is reported as > 60% and the EC50 [2] is reported as < 1 µM.

For `Cc1cccc(C)c1-c1cc2nc(n1)NS(=O)(=O)c1cccc(c1)C(=O)N(Cc1cnc3oc(C)c(C4CC4)c3n1)[C@H](COC(C)C)CO2` [Compound I-26, (11R)-12-[(7-cyclopropyl-6-methyl-furo[2,3-b]pyrazin-2-yl)methyl]-6-(2,6-dimethylphenyl)-11-(isopropoxymethyl)-2,2-dioxo-9-oxa-2λ^6-thia-3,5,12,19-tetrazatricyclo[12.3.1.14,8]nonadeca-1(18),4(19),5,7,14,16-hexaen-13-one], the ring closure, yield after HPLC ([1]; from Cc1cccc(C)c1-c1cc(OC[C@@H](COC(C)C)NCc2cnc3oc(C)c(C4CC4)c3n2)nc(NS(=O)(=O)c2cccc(C(=O)O)c2)n1, 12.8 mM, 16.5 h) was 61%, the Emax [2] was > 60% and the EC50 [2] was < 1 µM.

In the case of `Cc1cccc(C)c1-c1cc2nc(n1)NS(=O)(=O)c1cccc(c1)C(=O)N(Cc1cnc3oc(C(C)C)c(C)c3n1)[C@H](CC13CC(C1)C3)CO2` [Compound I-62, (11R)-11-(1-bicyclo[1.1.1]pentanylmethyl)-6-(2,6-dimethylphenyl)-12-[(6-isopropyl-7-methyl-furo[2,3-b]pyrazin-2-yl)methyl]-2,2-dioxo-9-oxa-2λ^6-thia-3,5,12,19-tetrazatricyclo[12.3.1.14,8]nonadeca-1(18),4(19),5,7,14,16-hexaen-13-one], the ring closure, yield after HPLC ([1]; from Cc1cccc(C)c1-c1cc(OC[C@@H](CC23CC(C2)C3)NCc2cnc3oc(C(C)C)c(C)c3n2)nc(NS(=O)(=O)c2cccc(C(=O)O)c2)n1, 39.5 mM, 14.0 h) is reported as 70%, the Emax [2] is reported as > 60% and the EC50 [2] is reported as < 1 µM.

For `Cc1cccc(C)c1-c1cc2nc(n1)NS(=O)(=O)c1cccc(c1)C(=O)N(Cc1nc3c(cc1F)cc(C(C)C)n3C)[C@H](CC13CC(C1)C3)CO2` [Compound I-87, (11R)-11-(1-bicyclo[1.1.1]pentanylmethyl)-6-(2,6-dimethylphenyl)-12-[(5-fluoro-2-isopropyl-1-methyl-pyrrolo[2,3-b]pyridin-6-yl)methyl]-2,2-dioxo-9-oxa-2λ^6-thia-3,5,12,19-tetrazatricyclo[12.3.1.14,8]nonadeca-1(18),4(19),5,7,14,16-hexaen-13-one], the ring closure, yield after HPLC ([1]; from Cc1cccc(C)c1-c1cc(OC[C@@H](CC23CC(C2)C3)NCc2nc3c(cc2F)cc(C(C)C)n3C)nc(NS(=O)(=O)c2cccc(C(=O)O)c2)n1, 10.7 mM, 24.5 h) was 39%, the Emax [2] was > 60% and the EC50 [2] was < 1 µM.

For `Cc1cccc(C)c1-c1cc2nc(n1)NS(=O)(=O)c1cccc(c1)C(=O)N(Cc1cnc3oc(C4CC4)cc3n1)[C@H](CC1(F)CCC1)CO2` [Compound I-123, (11R)-12-[(6-cyclopropylfuro[2,3-b]pyrazin-2-yl)methyl]-6-(2,6-dimethylphenyl)-11-[(1-fluorocyclobutyl)methyl]-2,2-dioxo-9-oxa-2λ^6-thia-3,5,12,19-tetrazatricyclo[12.3.1.14,8]nonadeca-1(18),4(19),5,7,14,16-hexaen-13-one], the ring closure, yield after HPLC ([1]; from Cc1cccc(C)c1-c1cc(OC[C@@H](CC2(F)CCC2)NCc2cnc3oc(C4CC4)cc3n2)nc(NS(=O)(=O)c2cccc(C(=O)O)c2)n1, 27.1 mM, 2.08 h) was 53%, the Emax [3] was > 60% and the EC50 [3] was 3 to 30 µM.

With `Cc1cccc(C)c1-c1cc2nc(n1)NS(=O)(=O)c1cccc(c1)C(=O)N(Cc1cnc3cn(C(C)C)nc3n1)[C@H](CC1(C)CC1)CO2` [Compound I-128, (11R)-6-(2,6-Dimethylphenyl)-12-[(2-isopropylpyrazolo[3,4-b]pyrazin-6-yl)methyl]-11-[(1-methylcyclopropyl)methyl]-2,2-dioxo-9-oxa-2λ^6-thia-3,5,12,19-tetrazatricyclo[12.3.1.14,8]nonadeca-1(18),4(19),5,7,14,16-hexaen-13-one] the ring closure, yield after HPLC ([1]; from Cc1cccc(C)c1-c1cc(OC[C@@H](CC2(C)CC2)NCc2cnc3cn(C(C)C)nc3n2)nc(NS(=O)(=O)c2cccc(C(=O)O)c2)n1, 12.0 mM, 22.5 h) was 38%, the Emax [3] was > 60% and the EC50 [3] was 3 to 30 µM.

In the case of `Cc1cccc(C)c1-c1cc2nc(n1)NS(=O)(=O)c1cccc(c1)C(=O)N(Cc1ncc3cc(C(C)(C)C)n(C)c3n1)[C@H](CC13CC(C1)C3)CO2` [IV-35, (11R)-11-(1-bicyclo[1.1.1]pentanylmethyl)-12-[(6-tert-butyl-7-methyl-pyrrolo[2,3-d]pyrimidin-2-yl)methyl]-6-(2,6-dimethylphenyl)-2,2-dioxo-9-oxa-2λ^6-thia-3,5,12,19-tetrazatricyclo[12.3.1.14,8]nonadeca-1(18),4(19),5,7,14,16-hexaen-13-one], the ring closure, yield after HPLC ([1]; from Cc1cccc(C)c1-c1cc(OC[C@@H](CC23CC(C2)C3)NCc2ncc3cc(C(C)(C)C)n(C)c3n2)nc(NS(=O)(=O)c2cccc(C(=O)O)c2)n1, 9.95 mM, 25.0 °C, 16.5 h) is reported as 27%, the EC50 [4] is reported as < 1 µM and the Emax [4] is reported as > 60%. The “D act. at 1 μM (%)” value [5] was “+++ (+++ is >60%)”.

For `CCC(CC)[C@@H]1COc2cc(-c3c(C)cccc3C)nc(n2)NS(=O)(=O)c2cccc(c2)C(=O)N1Cc1cnc2oc(C(C)(C)C)cc2n1` [IV-48, (11R)-12-[(6-tert-butylfuro[2,3-b]pyrazin-2-yl)methyl]-6-(2,6-dimethylphenyl)-11-(1-ethylpropyl)-2,2-dioxo-9-oxa-2λ^6-thia-3,5,12,19-tetrazatricyclo[12.3.1.14,8]nonadeca-1(18),4,6,8(19),14,16-hexaen-13-one], the ring closure, yield after HPLC ([1]; from CCC(CC)[C@H](COc1cc(-c2c(C)cccc2C)nc(NS(=O)(=O)c2cccc(C(=O)O)c2)n1)NCc1cnc2oc(C(C)(C)C)cc2n1, 11.1 mM, 25.0 °C, 18.0 h) was 52%, the EC50 [4] was 1 to 3 µM and the Emax [4] was > 60%. For the same molecule, the “D act. at 1 μM (%)” value [5] was “+++ (+++ is >60%)”.
